# Experimental data taken from patent US20090149427A1, “PHARMACEUTICALLY ACCEPTABLE SALTS AND HYDRATES OF RISEDRONIC ACID” (Pliva Hrvatska d.o.o., priority 2005, published 2009).
# Conditions: humidity range 0-90% RH at 25° C., over a time period of 1200 minutes, FIG. 7
# Experimental: FIG. 7: Izotherm diagram for tri-sodium risedronate dihydrate showing the sorption and desorption isotherm for tri-sodium risedronate dihydrate measured in a humidity range from 0-90% RH at 25° C. at DVS 1 (Surface Measurement System).
structure (smiles),measurement,value
O.O.O=P([O-])([O-])C(O)(Cc1cccnc1)P(=O)([O-])O.[Na+].[Na+].[Na+] [tri-sodium risedronate dihydrate],hygroscopicity (water absorption when humidity is raised),absorbs a minimum quantity of water
